Results as given in PubChem BioAssay (NCI).
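These data come from cells grown in 96-well plates and exposed to compound for 48 hours at five concentrations. TGI marks complete inhibition of growth.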

Assays:
Assay in all cases: NCI anticancer screen, dose series, 48 h
[1] = system: ACHN renal
[2] = system: HCT-116 colon
[3] = system: HT29 colon
[4] = system: IGROV1 ovarian
[5] = system: OVCAR-3 ovarian
[6] = system: OVCAR-4 ovarian
[7] = system: OVCAR-8 ovarian
[8] = system: SF-268 CNS
[9] = system: T-47D breast
[10] = system: U251 CNS
[11] = system: HCC-2998 colon
[12] = system: LOX IMVI melanoma
[13] = system: MDA-N

Compound	TGI [1] [µM]	TGI [2] [µM]	TGI [3] [µM]	TGI [4] [µM]	TGI [5] [µM]	TGI [6] [µM]	TGI [7] [µM]	TGI [8] [µM]	TGI [9] [µM]	TGI [10] [µM]	TGI [11] [µM]	TGI [12] [µM]	TGI [13] [µM]
[N-]=[N+]=Nc1cc(=O)n(-c2ccccc2)c(=O)n1-c1ccccc1	> 100	> 100	> 100	> 100	> 100	> 100	> 100	> 100	> 100	> 100			
CC(C)C1=CC(=O)C(C)(C2=NC(C)(C)CO2)c2ccccc21 (stereo not drawn)	> 100	> 100	> 100	> 100	> 100	> 100	> 100	> 100		> 100			
CCCCC1(OC(=O)CCC(=O)O)CCC2(CCC(C)C(C/C=C(C)/C=C/C(O)C(C)/C=C/C(=O)O)O2)OC1CC/C(C)=C/C(=O)O (stereo not drawn)	26.2	> 50.4	43.6	4.89	11.2	7.78	7.67	7.22		15.6	9.98	3.27	
CC1(C)C[C@H]2C3=CC[C@@H]4[C@@]5(C)CC[C@H](O)C(C)(C)[C@@H]5CC[C@@]4(C)[C@]3(C)C[C@@H](O)[C@@]23C[C@@H]1OC3=O	> 100	> 100	> 100	> 100	> 100	> 100	> 100	> 100	> 100	> 100	> 100	> 100	
N=c1oc2cc(O)c(O)cc2cc1C(N)=O	> 100	> 100	> 100	> 100	> 100	> 100	> 100	> 100		> 100	> 100	> 100	
COc1ccccc1NC(=S)Nc1cccc(C)n1		> 100	> 100	> 100	> 100	> 100	> 100	> 100	> 100	> 100		> 100	
NC(=S)Nc1nnc(-c2ccc(-c3nnc(NC(N)=S)o3)cc2)o1	> 100	> 100	> 100	> 100	> 100	> 100	> 100	> 100		> 100	> 100	> 100	
COc1cc(/C=C2\CCC(C)c3c2nc(N)c(C#N)c3-c2cc(OC)c(OC)c(OC)c2)cc(OC)c1OC (stereo not drawn)	> 100	> 100	> 100	> 100		78.1	40.3	> 100		> 100		> 100	> 100
Cc1cccc(NC(=O)CSc2nnc(Cc3ccccc3)o2)c1	> 100	> 100	> 100	> 100	> 100	> 100	> 100	> 100		> 100	> 100	> 100	
O=C(CSc1nnc(-c2ccc(N=Cc3ccc(Cl)cc3)cc2)o1)Nc1ccccc1	> 100	31.1	> 100			> 100	> 100	> 100		> 100		36.4	
C1=Cc2nc1c(-c1ccccc1)c1ccc([n-]1)c(-c1ccccc1)c1nc(c(-c3ccccc3)c3ccc([n-]3)c2-c2ccccc2)C=C1.[Zn+2]	> 100	> 100	> 100	> 100	> 100	> 100	> 100	> 100		> 100	> 100	> 100	
CC(C)(C)c1cc(N=NC(=S)NCc2ccccc2)cc(C(C)(C)C)c1O	> 100	> 100	> 100	> 100	> 100	> 100	> 100	> 100		> 100	> 100	> 100	
Cc1nc(Nc2ccccc2)sc1C(=O)NNC(N)=O	> 100	> 100		> 100	> 100	> 100	> 100	> 100		> 100	> 100	> 100	
CN(C)c1cccc(-c2cc(=O)c3cc4c(cc3[nH]2)OCO4)c1	> 37		> 100	> 47.5	0.0575	4.59	3.65	31.4		3.95	0.567	> 100	
O=C(/C=C(\O)C(=O)O)/C=C(\O)c1ccccc1Cl	> 100	> 100	> 100	> 100	> 100	> 100	> 100	> 100		> 100	> 100	> 100	
Cc1ccc2nc(CN3CCCCC3)cc(=O)n2c1	> 100	> 100	> 100	> 100	> 100	> 100	> 100	> 100		> 100	> 100	> 100	
CC[N+](CC)(CC)Cc1cn(S(=O)(=O)c2ccccc2)c2ccccc12	> 100	> 100	> 100	> 100	> 100	> 100	> 100	> 100		> 100	> 100		
CC/C(=C/OC)P1(=O)OC(C)(C)CN1C(C)(C)C (stereo not drawn)	> 100	> 100	> 100	> 100	> 100	> 100	> 100	> 100	> 100	> 100	> 100	> 100	
CC1C(c2ccccc2)=CCON1c1ccccc1 (stereo not drawn)	> 100	> 100	> 100	> 100	> 100	> 100	> 100	> 100		> 100	> 100	> 100	
Cc1c(C(=O)Nc2ccc(Cl)c(C(F)(F)F)c2)oc2cc(O)ccc2/c1=N\NC(N)=S	> 100	> 100	> 100	> 100	> 100	> 100	> 100	> 100		> 100	> 100	> 100	
CCCN(CCC)C(=S)N/N=C/c1cccc(C)n1	0.821	0.196	> 100	1.56		3.21	0.729	15.1		> 100		15.6	22.6
O=C1OC(c2ccccc2)(c2ccccc2)CC1CN1CCOCC1 (stereo not drawn)	32	25.3	15.1	> 100	28.9	40.9	> 100	84		49.7	31.4	28	
O=S(=O)([N-]c1nc2ccccc2nc1-[n+]1ccccc1)c1ccccc1	> 100	> 100	> 100	> 100	> 100	> 100	> 100	> 100	> 100		> 100	> 100	
CN=C1Nc2ccccc2C(=S)N2CSC[C@@H]12	> 100	> 100	> 100		> 100	> 100	> 100	> 100	> 100	> 100	> 100		
CC(=O)CCC(=O)CC(O)(C(F)(F)F)C(F)(F)F	42.6	31.3	34.7	31.1		37	37.9	44.6	40	33.2	33.6		
CSC1=N/C(=C\c2ccc(Cl)cc2)C(=O)N1CN1CCOCC1	> 100	> 100	94.4	> 100	> 100	61.6	61.6	> 100		> 100		> 100	> 100
Cc1nc2c(n1CCCl)C(=O)c1ccccc1C2=O	> 100	36.6	44.7	41.6	> 100	29.7	42.6	> 100		62.4	67.5		32.6
BrC12C3C4C5C(C(C43)C13OCCO3)C52 (stereo not drawn)	> 100	> 100	> 100	> 100	> 100		> 100	> 100		> 100	> 100	> 100	
O=C(/C=C/c1c(O)c2ccccc2[nH]c1=O)CC(=O)C(=O)Nc1cccc(O)c1	> 100	> 100	> 100	> 100	> 100	> 100	> 100	> 100	> 100	> 100	> 100	> 100	
CCOC(=O)C1=C(C)C2C3C(=O)NC(=O)C3C1(C)C1C(=O)NC(=O)C21 (stereo not drawn)	> 100	> 100	> 100	> 100	> 100	> 100	> 100	> 100		> 100	> 100	> 100	
